In general, EC50 refers to the concentration that produces a half-maximal response.

These results are taken from patent US20260356810A1, “NOVEL PIPERAZINE-BASED SULFONAMIDES AND THEIR USE AS NEUROPROTECTIVE AND/OR NEURORESTORATIVE AGENTS” (GENECODE, priority 2022, published 2026).

SMILES strings stand for the structures. A value given as a limit tells only on which side of the number the result lay.

The first test deals with T1, GFRα1-RET (Homo sapiens, UniProt P56159).
T1 construct: expressed in transfected cells; host or cells: MG87 murine fibroblast
T1 sequence (P56159 25-429 limits assumed): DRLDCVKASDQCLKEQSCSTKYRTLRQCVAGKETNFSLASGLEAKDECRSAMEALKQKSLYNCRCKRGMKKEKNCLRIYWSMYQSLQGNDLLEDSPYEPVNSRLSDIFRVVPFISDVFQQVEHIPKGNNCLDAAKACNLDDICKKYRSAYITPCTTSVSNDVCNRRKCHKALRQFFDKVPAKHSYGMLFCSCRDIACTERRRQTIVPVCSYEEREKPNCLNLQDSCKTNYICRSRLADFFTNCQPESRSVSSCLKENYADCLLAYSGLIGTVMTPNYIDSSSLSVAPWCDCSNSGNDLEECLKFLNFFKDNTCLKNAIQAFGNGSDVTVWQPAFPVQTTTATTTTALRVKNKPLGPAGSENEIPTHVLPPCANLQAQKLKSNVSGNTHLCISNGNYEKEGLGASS
T1 sequence (P07949 29-1114 partner): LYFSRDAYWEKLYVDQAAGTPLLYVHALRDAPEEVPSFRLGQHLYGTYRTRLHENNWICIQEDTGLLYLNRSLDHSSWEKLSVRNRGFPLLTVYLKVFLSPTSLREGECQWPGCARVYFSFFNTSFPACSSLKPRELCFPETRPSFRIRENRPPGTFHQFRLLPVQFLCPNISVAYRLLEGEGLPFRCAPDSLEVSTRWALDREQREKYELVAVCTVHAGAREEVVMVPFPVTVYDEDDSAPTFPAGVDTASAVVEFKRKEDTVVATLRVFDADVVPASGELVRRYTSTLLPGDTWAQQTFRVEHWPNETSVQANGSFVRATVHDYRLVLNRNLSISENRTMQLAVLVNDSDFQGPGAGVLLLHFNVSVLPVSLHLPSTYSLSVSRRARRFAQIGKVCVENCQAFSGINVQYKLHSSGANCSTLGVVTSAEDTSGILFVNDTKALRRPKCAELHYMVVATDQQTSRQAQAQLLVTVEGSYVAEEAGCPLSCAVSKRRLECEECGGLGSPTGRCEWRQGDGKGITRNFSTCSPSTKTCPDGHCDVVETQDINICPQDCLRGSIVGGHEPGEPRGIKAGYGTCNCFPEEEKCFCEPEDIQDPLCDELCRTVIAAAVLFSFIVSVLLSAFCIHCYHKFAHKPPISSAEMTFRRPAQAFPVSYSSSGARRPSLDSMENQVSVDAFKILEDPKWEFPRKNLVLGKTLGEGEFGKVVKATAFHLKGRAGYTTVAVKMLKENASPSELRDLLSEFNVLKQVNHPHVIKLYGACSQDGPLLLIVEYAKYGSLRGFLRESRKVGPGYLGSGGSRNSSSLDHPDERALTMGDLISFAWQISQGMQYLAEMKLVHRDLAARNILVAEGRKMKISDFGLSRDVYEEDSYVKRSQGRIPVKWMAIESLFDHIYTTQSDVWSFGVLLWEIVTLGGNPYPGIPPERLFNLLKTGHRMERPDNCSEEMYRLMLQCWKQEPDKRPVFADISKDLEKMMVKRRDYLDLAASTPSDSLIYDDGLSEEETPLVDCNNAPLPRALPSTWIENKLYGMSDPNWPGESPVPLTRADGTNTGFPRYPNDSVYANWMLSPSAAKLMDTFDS
Briefly: Luciferase assay: activation of Elk1 signaling in reporter-gene cells expressing GFRα1-RET (MG87 murine fibroblast stably transfected with PathDetect Elk-1, GFRα1, and RET). Format: cell-based. The following applies: Table 4; MG87 murine fibroblasts with PathDetect Elk-1, GFRα1, RET; 6 concentrations, duplicate, two times independently; agonist/activator activity; read-out: Luciferase Assay EC50. On the procedure: The purpose of this experiment was to evaluate the GFRα1-RET activity of the compounds 001-060 according to the invention.
The compounds were tested for their activating activity of Elk1 signaling using the previously developed reporter-gene-based system in cells expressing GFRα1-RET (MG87 murine fibroblast stably transfected with PathDetect Elk-1, GFRα1, and RET) disclosed in Sidorova, Y. A. et al.: “Persephin signaling through GFRα1: The potential for the treatment of Parkinson's disease.” Molecular and Cellular Neuroscience, July 2010, Vol. 44, pp. 223-232. DOI: 10.1016/j.mcn.2010.03.009. For EC50 determination, a dose-response test was performed using 6 concentrations of each tested compound. Dose-response curves were fitted using the sigmoidal dose-response (variable slope) analysis in GraphPad Prism program (Graph Pad Inc) and EC50 of agonist/activator activity was calculated. Dose-response experiments were all performed in duplicate, two times independently.
The compounds were tested for their activating activity of Elk1 signaling using the same materials and methods than for the compounds according to the invention (Example 2 herein, section “Materials and methods”).
As to `CCN(CC)S(=O)(=O)c1ccc(OC)c(N2CCN(C(=O)c3ccc(F)cc3Cl)CC2)c1` [Compound 001, 3-[4-(2-chloro-4-fluoro-benzoyl)piperazin-1-yl]-N,N-diethyl-4-methoxy-benzenesulfonamide], the EC50 is 5 to 10 µM.

On to `COc1ccc(S(=O)(=O)NC(C)(C)C)cc1N1CCN(C(=O)c2ccc(F)cc2Cl)CC1` [Compound 032, N-tert-butyl-3-[4-(2-chloro-4-fluoro-benzoyl)piperazin-1-yl]-4-methoxy-benzenesulfonamide], for which the concentration giving a half-maximal response (EC50) was in the range of 1 to 5 µM.

As for `COc1ccc(S(=O)(=O)N(C)Cc2cccc(Cl)c2)cc1N1CCN(C(=O)c2ccc(F)cc2Cl)CC1` [Compound 020, 3-[4-(2-chloro-4-fluoro-benzoyl)piperazin-1-yl]-N-[(3-chlorophenyl)methyl]-4-methoxy-N-methyl-benzenesulfonamide], the EC50 is 1 to 5 µM.

Take `CCCN(C)S(=O)(=O)c1ccc(F)c(N2CCN(C(=O)c3ccc(F)cc3C(F)(F)F)CC2)c1` [Compound 042, 4-fluoro-3-[4-[4-fluoro-2-(trifluoromethyl)benzoyl]piperazin-1-yl]-N-methyl-N-propyl-benzenesulfonamide]: the EC50 fell in the range of 1 to 5 µM.

Turning to `COc1ccc(S(=O)(=O)N2CC3CN(C(=O)OC(C)(C)C)CC3C2)cc1N1CCN(C(=O)c2ccc(F)cc2Cl)CC1` (stereo not shown) [Compound 022, tert-butyl 5-[3-[4-(2-chloro-4-fluoro-benzoyl)piperazin-1-yl]-4-methoxy-phenyl]sulfonyl-1,3,3a,4,6,6a-hexahydropyrrolo[3,4-c]pyrrole-2-carboxylate], the EC50 was in the range of 10 to 50 µM.

Take `CCN(CC)S(=O)(=O)c1cnc(OC)c(N2CCN(C(=O)c3ccc(F)cc3C(F)(F)F)CC2)c1` [Compound 045, N,N-diethyl-5-[4-[4-fluoro-2-(trifluoromethyl)benzoyl]piperazin-1-yl]-6-methoxy-pyridine-3-sulfonamide]: the EC50 was 10 to 50 µM.

Turning to `COc1ccc(S(=O)(=O)N2CCCC(OCc3ccccc3)C2)cc1N1CCN(C(=O)c2ccc(F)cc2Cl)CC1` (stereo not shown) [Compound 038, (2-chloro-4-fluoro-phenyl)-[4-[2-methoxy-5-[[3-benzyloxy-1-piperidyl]sulfonyl]phenyl]piperazin-1-yl]methanone], the EC50 lay in the range of 1 to 5 µM.

Turning to `COc1ccc(S(=O)(=O)N2CCN(CCc3ccc(Cl)cc3)CC2)cc1N1CCN(C(=O)c2ccc(F)cc2Cl)CC1` [Compound 051, (2-chloro-4-fluoro-phenyl)-[4-[5-[4-[2-(4-chlorophenyl)ethyl]piperazin-1-yl]sulfonyl-2-methoxy-phenyl]piperazin-1-yl]methanone], the EC50 was 1 to 5 µM.

`COc1ccc(S(=O)(=O)N2CCCC2(C)C)cc1N1CCN(C(=O)c2ccc(F)cc2Cl)CC1` [Compound 060, (2-chloro-4-fluoro-phenyl)-[4-[5-(2,2-dimethylpyrrolidin-1-yl)sulfonyl-2-methoxy-phenyl]piperazin-1-yl]methanone]: the EC50 fell in the range of 1 to 5 µM.

As to `COc1ccc(S(=O)(=O)N(C)CC2CCCCC2)cc1N1CCN(C(=O)c2ccc(F)cc2Cl)CC1` [Compound 015, 3-[4-(2-chloro-4-fluoro-benzoyl)piperazin-1-yl]-N-(cyclohexylmethyl)-4-methoxy-N-methyl-benzenesulfonamide], the EC50 was in the range of 5 to 10 µM.

For `CCN(CC)S(=O)(=O)c1ccc(OC)c(N2CCN(C(=O)c3cc(F)c(F)cc3Cl)CC2)c1` [Compound 002, 3-[4-(2-chloro-4,5-difluoro-benzoyl)piperazin-1-yl]-N,N-diethyl-4-methoxy-benzenesulfonamide], the EC50 lay within 5 to 10 µM.

Consider `COc1ccc(S(=O)(=O)N2CCC(Cc3ccccc3)CC2)cc1N1CCN(C(=O)c2ccccc2C(F)F)CC1` [Compound 007, [4-[5-[(4-benzyl-1-piperidyl)sulfonyl]-2-methoxy-phenyl]piperazin-1-yl]-[2-(difluoromethyl)phenyl]methanone], for which the EC50 fell in the range of 1 to 5 µM.

`CCCN(C)S(=O)(=O)c1ccc(OCCO)c(N2CCN(C(=O)c3ccc(F)cc3C(F)(F)F)CC2)c1` [Compound 049, 3-[4-[4-fluoro-2-(trifluoromethyl)benzoyl]piperazin-1-yl]-4-(2-hydroxyethoxy)-N-methyl-N-propyl-benzenesulfonamide]: the EC50 was in the range of 10 to 50 µM.

`COc1ccc(S(=O)(=O)N(C)Cc2ccccc2)cc1N1CCN(C(=O)c2ccc(F)cc2Cl)CC1` [Compound 019, N-benzyl-3-[4-(2-chloro-4-fluoro-benzoyl)piperazin-1-yl]-4-methoxy-N-methyl-benzenesulfonamide]: the EC50 was 10 to 50 µM.

For `COc1ccc(S(=O)(=O)NC2(C)CCCCC2)cc1N1CCN(C(=O)c2ccc(F)cc2Cl)CC1` [Compound 035, 3-[4-(2-chloro-4-fluoro-benzoyl)piperazin-1-yl]-4-methoxy-N-(1-methylcyclohexyl)benzenesulfonamide], the EC50 lay in the range of 1 to 5 µM.

On to `COc1ccc(S(=O)(=O)N2CCN(CCc3ccc(F)cc3)CC2)cc1N1CCN(C(=O)c2ccc(F)cc2Cl)CC1` [Compound 052, (2-chloro-4-fluoro-phenyl)-[4-[5-[4-[2-(4-fluorophenyl)ethyl]piperazin-1-yl]sulfonyl-2-methoxy-phenyl]piperazin-1-yl]methanone], for which the EC50 was in the range of 1 to 5 µM.

Regarding `COc1ccc(S(=O)(=O)N2CCCC2)cc1N1CCN(C(=O)c2ccc(Cl)cc2Cl)CC1` [Compound 003, (2,4-dichlorophenyl)-[4-(2-methoxy-5-pyrrolidin-1-ylsulfonyl-phenyl)piperazin-1-yl]methanone], the EC50 lay in the range of 10 to 50 µM.

On to `CCCN(C)S(=O)(=O)c1ccc(OC)c(N2CCN(C(=O)c3ccc(F)cc3Cl)CC2)c1` [Compound 030, 3-[4-(2-chloro-4-fluoro-benzoyl)piperazin-1-yl]-4-methoxy-N-methyl-N-propyl-benzenesulfonamide], for which the EC50 is 1 to 5 µM.

As for `COc1ccc(S(=O)(=O)N2CCN(CC(C)c3ccc(F)cc3)CC2)cc1N1CCN(C(=O)c2ccc(F)cc2Cl)CC1` (racemic) [Compound 054, (2-chloro-4-fluoro-phenyl)-[4-[2-methoxy-5-[4-[rac-(2R)-2-(4-fluorophenyl)propyl]piperazin-1-yl]sulfonyl-phenyl]piperazin-1-yl]methanone], the EC50 is under 1 µM.

Turning to `CCCN(C)S(=O)(=O)c1ccc(OC)c(N2CCN(C(=O)c3cc(F)c(F)cc3Cl)CC2)c1` [Compound 005, 3-[4-(2-chloro-4,5-difluoro-benzoyl)piperazin-1-yl]-4-methoxy-N-methyl-N-propyl-benzenesulfonamide], the EC50 is 1 to 5 µM.

Regarding `CCCN(C)S(=O)(=O)c1ccc(OCc2ccccc2)c(N2CCN(C(=O)c3ccc(F)cc3C(F)(F)F)CC2)c1` [Compound 047, 4-benzyloxy-3-[4-[4-fluoro-2-(trifluoromethyl)benzoyl]piperazin-1-yl]-N-methyl-N-propyl-benzenesulfonamide], the EC50 lay within 1 to 5 µM.

`Cc1cc(S(=O)(=O)N2CCC(c3ccccc3)CC2)cc(N2CCN(C(=O)c3ccc(F)cc3Cl)CC2)c1O` [Compound 055, (2-chloro-4-fluoro-phenyl)-[4-[2-hydroxy-3-methyl-5-[(4-phenyl-1-piperidyl)sulfonyl]phenyl]piperazin-1-yl]methanone]: the EC50 is under 1 µM.

Turning to `COc1ccc(S(=O)(=O)N2CCC(Cc3ccccc3)CC2)cc1N1CCN(C(=O)c2cc(F)c(F)cc2Cl)CC1` [Compound 009, [4-[5-[(4-benzyl-1-piperidyl)sulfonyl]-2-methoxy-phenyl]piperazin-1-yl]-(2-chloro-4,5-difluoro-phenyl)methanone], the EC50 is under 1 µM.

Turning to `COc1ccc(S(=O)(=O)N2CCC(CCc3ccccc3)CC2)cc1N1CCN(C(=O)c2ccc(F)cc2Cl)CC1` [Compound 024, (2-chloro-4-fluoro-phenyl)-[4-[2-methoxy-5-[[4-(2-phenylethyl)-1-piperidyl]sulfonyl]phenyl]piperazin-1-yl]methanone], the EC50 is under 1 µM.

In the case of `CCCN(C)S(=O)(=O)c1ccc(OCCOC)c(N2CCN(C(=O)c3ccc(F)cc3C(F)(F)F)CC2)c1` [Compound 046, 3-[4-[4-fluoro-2-(trifluoromethyl)benzoyl]piperazin-1-yl]-4-(2-methoxyethoxy)-N-methyl-N-propyl-benzenesulfonamide], the EC50 is 5 to 10 µM.

`COc1ccc(S(=O)(=O)N2CCCC(Cc3ccccc3)C2)cc1N1CCN(C(=O)c2ccc(F)cc2Cl)CC1` (stereo not shown) [Compound 027, (2-chloro-4-fluoro-phenyl)-[4-[2-methoxy-5-[[3-benzyl-1-piperidyl]sulfonyl]phenyl]piperazin-1-yl]methanone]: the EC50 lay in the range of 1 to 5 µM.

For `COc1ccc(S(=O)(=O)N2CC3CCC2C3)cc1N1CCN(C(=O)c2ccc(F)cc2Cl)CC1` (stereo not shown) [Compound 036, (2-chloro-4-fluoro-phenyl)-[4-[2-methoxy-5-[[2-azabicyclo[2.2.1]heptan-2-yl]sulfonyl]phenyl]piperazin-1-yl]methanone], the EC50 was in the range of 10 to 50 µM.

The same test, now with this note: Table 6, comparison with comparative compounds; values for 001, 009, 010 reported from Table 4; MG87 GFRα1-RET cells; read-out: Luciferase Assay EC50.
For `CCN(CC)S(=O)(=O)c1ccc(OC)c(N2CCN(C(=O)c3ccc(F)cc3Cl)CC2)c1` [Compound 001, 3-[4-(2-chloro-4-fluoro-benzoyl)piperazin-1-yl]-N,N-diethyl-4-methoxy-benzenesulfonamide], the EC50 was in the range of 5 to 10 µM.

On to `COc1ccc(S(=O)(=O)N2CCC(Cc3ccccc3)CC2)cc1N1CCN(C(=O)c2cc(F)c(F)cc2Cl)CC1` [Compound 009, [4-[5-[(4-benzyl-1-piperidyl)sulfonyl]-2-methoxy-phenyl]piperazin-1-yl]-(2-chloro-4,5-difluoro-phenyl)methanone], for which the EC50 was under 1 µM.

The same test, now with this note: text statement on Table 6 results, GFRα1-RET luciferase assay; read-out: EC50.
As for `CCN(CC)S(=O)(=O)c1ccc(OC)c(N2CCN(C(=O)c3ccc(F)cc3Cl)CC2)c1` [Compound 001, 3-[4-(2-chloro-4-fluoro-benzoyl)piperazin-1-yl]-N,N-diethyl-4-methoxy-benzenesulfonamide], the EC50 is under 10 µM.

`COc1ccc(S(=O)(=O)N2CCC(Cc3ccccc3)CC2)cc1N1CCN(C(=O)c2cc(F)c(F)cc2Cl)CC1` [Compound 009, [4-[5-[(4-benzyl-1-piperidyl)sulfonyl]-2-methoxy-phenyl]piperazin-1-yl]-(2-chloro-4,5-difluoro-phenyl)methanone]: the EC50 was under 10 µM.
